Data as given in ChEMBL document CHEMBL1147725, “Identification and biological characterization of 6-aryl-7-isopropylquinazolinones as novel TRPV1 antagonists that are effective in models of chronic pain” (J Med Chem, 2006).

Tests used:
Rattus norvegicus [1] = assay: Concentration in rat brain at 1 mg/kg, iv after 6 hrs; assay type: ADME, organism-based, Wistar Han; parameters: dose 1 mg/kg, route intravenous; settings: in vivo
Rattus norvegicus [2] = assay: Concentration in rat brain at 1 mg/kg, iv after 1 hrs; assay type: ADME, organism-based, Wistar Han; parameters: dose 1 mg/kg, route intravenous; settings: in vivo
[3] = Plasma concentration in rat at 3 mg/kg, po after 0.16 hrs; assay type: ADME, organism-based; parameters: dose 3 mg/kg, route oral; settings: Wistar Han
[4] = Permeability across Caco-2 cell membrane; assay type: ADME, cell-based; settings: human, read-out: permeability (converted)
[5] = target: Transient receptor potential cation channel subfamily V member 1 (Rattus norvegicus) (UniProt O35433); assay: Effect on capsaicin induced mechanical hyperalgesia in rat; assay type: functional
[6] = target: Transient receptor potential cation channel subfamily V member 1 (Rattus norvegicus) (UniProt O35433); assay: Effect on inflammatory mechanical hyperalgesia in rat at 1 hr; assay type: functional
[7] = target: Transient receptor potential cation channel subfamily V member 1 (Rattus norvegicus) (UniProt O35433); assay: Effect on neuropathic mechanical hyperalgesia in rat at 1 hr; assay type: functional
[8] = Cmax in rat plasma at 3 mg/kg, po; assay type: ADME, organism-based; parameters: dose 3 mg/kg, route oral; settings: Wistar Han
[9] = Tmax in rat plasma at 3 mg/kg, po; assay type: ADME, organism-based; parameters: dose 3 mg/kg, route oral; settings: Wistar Han
Rattus norvegicus [10] = assay: Cmax in rat brain at 1 mg/kg, iv; assay type: ADME, organism-based, Wistar Han; parameters: dose 1 mg/kg, route intravenous; settings: in vivo
[11] = Tmax in rat brain at 1 mg/kg, iv; assay type: ADME, organism-based; parameters: dose 1 mg/kg, route intravenous; settings: Wistar Han
Rattus norvegicus [12] = assay: Cmax in rat brain at 3 mg/kg, po; assay type: ADME, organism-based, Wistar Han; parameters: dose 3 mg/kg, route oral; settings: in vivo
[13] = Tmax in rat brain at 3 mg/kg, po; assay type: ADME, organism-based; parameters: dose 3 mg/kg, route oral; settings: Wistar Han
[14] = Terminal half life in rat at 1 mg/kg, iv; assay type: ADME, organism-based; parameters: dose 1 mg/kg, route intravenous; settings: Wistar Han, in vivo, read-out: beta t1/2 (converted)
[15] = Terminal half life in rat at 3 mg/kg, po; assay type: ADME, organism-based; parameters: dose 3 mg/kg, route oral; settings: Wistar Han, in vivo, read-out: beta t1/2 (converted)
[16] = Clearance in rat at 1 mg/kg, iv; assay type: ADME, organism-based; parameters: dose 1 mg/kg, route intravenous; settings: Wistar Han, in vivo
[17] = Volume of distribution in rat at 1 mg/kg, iv; assay type: ADME, organism-based; parameters: dose 1 mg/kg, route intravenous; settings: Wistar Han, in vivo, read-out: Vdss
[18] = Oral Bioavailability in rat at 3mg/kg; assay type: ADME, organism-based; settings: Wistar Han, in vivo
[19] = Plasma concentration in rat at 1 mg/kg, iv after 0.033 hrs; assay type: ADME, organism-based; parameters: dose 1 mg/kg, route intravenous; settings: Wistar Han
[20] = Plasma concentration in rat at 1 mg/kg, iv after 0.083 hrs; assay type: ADME, organism-based; parameters: dose 1 mg/kg, route intravenous; settings: Wistar Han
[21] = Plasma concentration in rat at 1 mg/kg, iv after 0.16 hrs; assay type: ADME, organism-based; parameters: dose 1 mg/kg, route intravenous; settings: Wistar Han
[22] = Plasma concentration in rat at 1 mg/kg, iv after 0.5 hrs; assay type: ADME, organism-based; parameters: dose 1 mg/kg, route intravenous; settings: Wistar Han
[23] = Plasma concentration in rat at 1 mg/kg, iv after 1 hrs; assay type: ADME, organism-based; parameters: dose 1 mg/kg, route intravenous; settings: Wistar Han
[24] = Plasma concentration in rat at 1 mg/kg, iv after 1.5 hrs; assay type: ADME, organism-based; parameters: dose 1 mg/kg, route intravenous; settings: Wistar Han
[25] = Plasma concentration in rat at 1 mg/kg, iv after 2 hrs; assay type: ADME, organism-based; parameters: dose 1 mg/kg, route intravenous; settings: Wistar Han
[26] = Plasma concentration in rat at 1 mg/kg, iv after 4 hrs; assay type: ADME, organism-based; parameters: dose 1 mg/kg, route intravenous; settings: Wistar Han
[27] = Plasma concentration in rat at 1 mg/kg, iv after 6 hrs; assay type: ADME, organism-based; parameters: dose 1 mg/kg, route intravenous; settings: Wistar Han
Rattus norvegicus [28] = assay: Concentration in rat brain at 1 mg/kg, iv after 0.033 hrs; assay type: ADME, organism-based, Wistar Han; parameters: dose 1 mg/kg, route intravenous; settings: in vivo
Rattus norvegicus [29] = assay: Concentration in rat brain at 1 mg/kg, iv after 0.083 hrs; assay type: ADME, organism-based, Wistar Han; parameters: dose 1 mg/kg, route intravenous; settings: in vivo
Rattus norvegicus [30] = assay: Concentration in rat brain at 1 mg/kg, iv after 0.5 hrs; assay type: ADME, organism-based, Wistar Han; parameters: dose 1 mg/kg, route intravenous; settings: in vivo
Rattus norvegicus [31] = assay: Concentration in rat brain at 1 mg/kg, iv after 1.5 hrs; assay type: ADME, organism-based, Wistar Han; parameters: dose 1 mg/kg, route intravenous; settings: in vivo
Rattus norvegicus [32] = assay: Concentration in rat brain at 1 mg/kg, iv after 2 hrs; assay type: ADME, organism-based, Wistar Han; parameters: dose 1 mg/kg, route intravenous; settings: in vivo
[33] = Plasma concentration in rat at 3 mg/kg, po after 0.5 hrs; assay type: ADME, organism-based; parameters: dose 3 mg/kg, route oral; settings: Wistar Han
[34] = Plasma concentration in rat at 3 mg/kg, po after 1 hrs; assay type: ADME, organism-based; parameters: dose 3 mg/kg, route oral; settings: Wistar Han
[35] = Plasma concentration in rat at 3 mg/kg, po after 1.5 hrs; assay type: ADME, organism-based; parameters: dose 3 mg/kg, route oral; settings: Wistar Han
[36] = Plasma concentration in rat at 3 mg/kg, po after 2 hrs; assay type: ADME, organism-based; parameters: dose 3 mg/kg, route oral; settings: Wistar Han
[37] = Plasma concentration in rat at 3 mg/kg, po after 4 hrs; assay type: ADME, organism-based; parameters: dose 3 mg/kg, route oral; settings: Wistar Han
[38] = Plasma concentration in rat at 3 mg/kg, po after 6 hrs; assay type: ADME, organism-based; parameters: dose 3 mg/kg, route oral; settings: Wistar Han

Chain of Transient receptor potential cation channel subfamily V member 1 (Rattus norvegicus) (O35433 whole entry): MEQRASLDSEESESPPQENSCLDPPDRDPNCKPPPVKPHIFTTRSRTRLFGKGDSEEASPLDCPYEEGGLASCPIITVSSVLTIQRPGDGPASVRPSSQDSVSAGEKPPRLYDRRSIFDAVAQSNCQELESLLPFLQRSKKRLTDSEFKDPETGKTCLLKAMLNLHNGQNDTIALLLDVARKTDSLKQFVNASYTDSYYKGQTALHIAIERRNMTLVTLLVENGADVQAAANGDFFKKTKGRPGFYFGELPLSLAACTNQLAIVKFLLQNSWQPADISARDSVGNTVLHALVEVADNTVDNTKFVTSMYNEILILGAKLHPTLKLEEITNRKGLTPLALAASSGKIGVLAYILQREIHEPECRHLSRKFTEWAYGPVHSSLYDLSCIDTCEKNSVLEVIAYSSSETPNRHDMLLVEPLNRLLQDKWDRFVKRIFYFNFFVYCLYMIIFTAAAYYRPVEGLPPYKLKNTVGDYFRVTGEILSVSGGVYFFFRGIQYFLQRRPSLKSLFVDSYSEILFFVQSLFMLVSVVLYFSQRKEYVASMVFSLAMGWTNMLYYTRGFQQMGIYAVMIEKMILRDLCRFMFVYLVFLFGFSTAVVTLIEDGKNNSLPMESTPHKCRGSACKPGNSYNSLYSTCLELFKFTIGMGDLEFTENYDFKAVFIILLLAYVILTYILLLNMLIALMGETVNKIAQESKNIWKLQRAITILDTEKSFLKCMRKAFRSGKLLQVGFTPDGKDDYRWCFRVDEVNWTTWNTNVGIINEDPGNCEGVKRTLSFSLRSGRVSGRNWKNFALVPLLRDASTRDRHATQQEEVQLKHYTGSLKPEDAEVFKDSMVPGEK

## Cc1nc2cc(C(C)C)c(-c3ccc(Cl)c(OCC4CC4)c3)cc2c(=O)[nH]1
Rattus norvegicus [1]
  Ct: 205 pmol/g
Rattus norvegicus [2]
  Ct: 709 pmol/g
[3]
  concentration at 0.16 h: 60 nM
[4]
  Papp: 4.37 ×10⁻⁶ cm/s
[5]
  Activity: Dose-dependent effect
[6]
  ED50: 4.7 mg/kg
[7]
  ED50: 2.6 mg/kg
[8]
  Cmax: 1910 nM
[9]
  Tmax: 4 h
Rattus norvegicus [10]
  Cmax: 1079 pmol/g
[11]
  Tmax: 0.5 h
Rattus norvegicus [12]
  Cmax: 1666 pmol/g
[13]
  Tmax: 4 h
[14]
  half-life: 3.48 h
[15]
  half-life: 3.5 h
[16]
  clearance: 5.25 mL/min/kg
[17]
  Vd: 1.55 L/kg
[18]
  bioavailability: 75%
[19]
  concentration at 0.033 h: 3540 nM
[20]
  concentration at 0.083 h: 2650 nM
[21]
  concentration at 0.16 h: 2200 nM
[22]
  concentration at 0.5 h: 1180 nM
[23]
  concentration at 1 h: 1330 nM
[24]
  concentration at 1.5 h: 1120 nM
[25]
  concentration at 2 h: 1080 nM
[26]
  concentration at 4 h: 726 nM
[27]
  concentration at 6 h: 488 nM
Rattus norvegicus [28]
  Ct: 764 pmol/g
Rattus norvegicus [29]
  Ct: 960 pmol/g
Rattus norvegicus [30]
  Ct: 1079 pmol/g
Rattus norvegicus [31]
  Ct: 351 pmol/g
Rattus norvegicus [32]
  Ct: 449 pmol/g
[33]
  concentration at 0.5 h: 599 nM
[34]
  concentration at 1 h: 1530 nM
[35]
  concentration at 1.5 h: 1790 nM
[36]
  concentration at 2 h: 1420 nM
[37]
  concentration at 4 h: 1910 nM
[38]
  concentration at 6 h: 1860 nM
